In patent US12540131B2 (Merck Sharp & Dohme LLC, priority 2019, dated 2026):

biological target: GST tagged truncated human mutant G2019S LRRK2 (Homo sapiens (Human), UniProt Q5S007, G2019S); assay: LRRK2 Km ATP LanthaScreen Assay; format: biochemical; conditions: G2019S LRRK2, 134 μM ATP (Km ATP), mean values
Summary of the method: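 Enzyme (GST-tagged, truncated) was preincubated with compound for 15 min at RT in 50 mM Tris pH 8.5, 10 mM MgCl2, 0.01% Brij-35, 1 mM EGTA, 2 mM DTT and 0.05 mM orthovanadate. Fluorescein-LRRKtide and 134 μM ATP (Km) were then added for 90 min. EDTA and Tb-anti-pERM antibody stopped the reaction; the TR-FRET 520/495 ratio gave 4-parameter IC50s, reported as mean pIC50.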

GST tagged truncated human mutant G2019S LRRK2, sequence (Q5S007 970-2527 G2019S): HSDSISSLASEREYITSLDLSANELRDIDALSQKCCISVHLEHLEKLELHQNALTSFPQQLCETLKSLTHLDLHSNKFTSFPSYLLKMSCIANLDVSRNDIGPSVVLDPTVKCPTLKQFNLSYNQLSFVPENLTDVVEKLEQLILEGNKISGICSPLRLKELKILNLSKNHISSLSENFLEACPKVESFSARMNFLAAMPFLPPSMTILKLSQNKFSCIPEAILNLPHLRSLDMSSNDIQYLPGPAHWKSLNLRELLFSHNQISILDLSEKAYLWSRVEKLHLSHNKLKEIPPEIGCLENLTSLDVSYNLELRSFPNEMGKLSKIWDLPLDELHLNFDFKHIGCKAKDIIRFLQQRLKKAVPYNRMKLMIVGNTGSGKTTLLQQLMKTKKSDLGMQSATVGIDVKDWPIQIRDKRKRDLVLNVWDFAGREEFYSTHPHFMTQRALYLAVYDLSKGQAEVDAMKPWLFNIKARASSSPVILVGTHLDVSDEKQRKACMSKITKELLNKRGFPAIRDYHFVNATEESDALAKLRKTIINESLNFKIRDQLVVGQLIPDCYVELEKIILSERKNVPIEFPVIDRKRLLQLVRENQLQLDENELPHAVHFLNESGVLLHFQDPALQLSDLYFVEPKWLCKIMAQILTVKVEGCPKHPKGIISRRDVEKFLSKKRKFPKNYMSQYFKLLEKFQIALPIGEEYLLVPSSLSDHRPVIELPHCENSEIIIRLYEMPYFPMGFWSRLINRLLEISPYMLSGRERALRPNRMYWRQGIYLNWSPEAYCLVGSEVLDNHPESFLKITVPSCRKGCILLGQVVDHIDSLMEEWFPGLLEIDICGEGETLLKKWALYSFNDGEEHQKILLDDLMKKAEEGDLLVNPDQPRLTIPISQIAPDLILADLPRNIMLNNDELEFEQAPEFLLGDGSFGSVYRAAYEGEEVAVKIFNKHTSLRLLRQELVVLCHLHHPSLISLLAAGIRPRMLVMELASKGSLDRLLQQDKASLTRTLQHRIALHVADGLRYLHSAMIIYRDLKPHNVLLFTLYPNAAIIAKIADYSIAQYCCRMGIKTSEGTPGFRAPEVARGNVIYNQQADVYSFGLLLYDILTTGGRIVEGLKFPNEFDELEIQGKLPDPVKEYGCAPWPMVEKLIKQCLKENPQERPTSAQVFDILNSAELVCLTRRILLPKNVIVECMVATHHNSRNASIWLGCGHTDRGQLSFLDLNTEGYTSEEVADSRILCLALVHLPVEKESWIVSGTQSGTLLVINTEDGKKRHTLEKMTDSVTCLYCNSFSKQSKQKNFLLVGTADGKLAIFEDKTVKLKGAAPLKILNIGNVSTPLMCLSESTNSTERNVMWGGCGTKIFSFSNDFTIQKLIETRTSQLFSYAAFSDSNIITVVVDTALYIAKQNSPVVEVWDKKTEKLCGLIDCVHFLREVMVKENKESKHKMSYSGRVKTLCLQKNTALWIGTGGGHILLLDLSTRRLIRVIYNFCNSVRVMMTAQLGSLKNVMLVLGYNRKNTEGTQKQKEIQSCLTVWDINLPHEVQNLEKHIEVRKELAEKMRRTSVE

| SMILES | LRRK2 pIC50 |
| --- | --- |
| Cc1c(Nc2ncc3cc(Cl)c(C4CCN(C5CCC(CC#N)C5)CC4)cc3n2)cnn1C1CC1 (single isomer, unassigned) [Ex-4.171, (1R,3R) or (1S,3R) or (1R,3S) or (1S,3S) [3-(4-{6-chloro-2-[(1-cyclopropyl-5-methyl-1H-pyrazol-4-yl)amino]quinazolin-7-yl}piperidin-1-yl)cyclopentyl]acetonitrile] | 8.51 |
| Cc1nsc(Nc2ncc3cc(Cl)c([C@@H]4CCN(C5COC[C@@H]5O)C[C@H]4F)cc3n2)c1Cl (single isomer, unassigned) [Ex-4.120, (3S,4S)(3S,4S) or (3S,4S)(3R,4R) or (3R,4R)(3S,4S) or (3R,4R)(3R,4R) 4-{6-chloro-2-[(4-chloro-3-methyl-1,2-thiazol-5-yl)amino]quinazolin-7-yl}-3-fluoropiperidin-1-yl]oxolan-3-ol] | 7.65 |
| Cn1nc(C(F)(F)F)cc1Nc1ncc2cc(Cl)c([C@@H]3CCN([C@@]4(C)COC[C@H]4O)C[C@H]3F)cc2n1 (single isomer, unassigned) [Ex-4.252, (3S,4S)(3S,4S) or (3S,4S)(3R,4R) or (3R,4R)(3S,4S) or (3R,4R)(3R,4R) 4-[4-(6-chloro-2-{[1-methyl-3-(trifluoromethyl)-1H-pyrazol-5-yl]amino}quinazolin-7-yl)-3-fluoropiperidin-1-yl]-4-methyloxolan-3-ol] | 6.61 |
| Cc1cc2cnc(Nc3cnn(C)c3C)nc2cc1[C@@H]1CCN([C@@H]2COC[C@@H]2O)C[C@H]1F (single isomer, unassigned) [Ex-4.257, (3S,4S)(3S,4S) or (3S,4S)(3R,4R) or (3R,4R)(3S,4S) or (3R,4R)(3R,4R) 4-(4-(2-((1,5-dimethyl-1H-pyrazol-4-yl)amino)-6-methylquinazolin-7-yl)-3-fluoropiperidin-1-yl)tetrahydrofuran-3-ol] | >9.20 |
| N#CC1CCC(N2CC[C@@H](c3cc4nc(Nc5cnn(C6CC6)c5Cl)ncc4cc3Cl)[C@H](F)C2)C1 (single isomer, unassigned) [Ex-4.109, (1R,3S)-3-((3S,4S) or (1S,3R)-3-((3S,4S) or (1R,3R)-3-((3S,4S) or (1S,3S)-3-((3S,4S) or (1R,3S)-3-((3R,4R) or (1S,3R)-3-((3R,4R) or (1R,3R)-3-((3R,4R) or 1S,3S)-3-((3R,4R) 4-(6-chloro-2-((5-chloro-1-cyclopropyl-1H-pyrazol-4-yl)amino)quinazolin-7-yl)-3-fluoropiperidin-1-yl)cyclopentane-1-carbonitrile] | 7.99 |
| CC1(n2ncc(Nc3ncc4cc(Cl)c(C5CCN(C6COC6)CC5)cc4n3)c2Cl)CC1 [Ex-4.56, 6-chloro-N-[5-chloro-1-(1-methylcyclopropyl)-1H-pyrazol-4-yl]-7-[1-(oxetan-3-yl)piperidin-4-yl]quinazolin-2-amine] | >9.20 |
| Cc1c(Nc2ncc3cc(Cl)c(C4CCN([C@@H]5COC[C@@H]5O)CC4)cc3n2)cnn1C1CC1(F)F (single isomer, unassigned) [Ex-4.182, (R)(3S,4S) or (S)(3S,4S) or (R)(3R,4R) or (S)(3R,4R) 4-[4-(6-chloro-2-{[1-(2,2-difluorocyclopropyl)-5-methyl-1H-pyrazol-4-yl]amino}quinazolin-7-yl)piperidin-1-yl]oxolan-3-ol] | >9.20 |
| CC(C)(O)Cn1ncc(Nc2ncc3cc(Cl)c([C@@H]4CCN(C5(C)COC5)C[C@H]4F)cc3n2)c1Cl (single isomer, unassigned) [Ex-2.1, (3S,4S) or (3R,4R) 1-(5-chloro-4-((6-chloro-7-(3-fluoro-1-(3-methyloxetan-3-yl)piperidin-4-yl)quinazolin-2-yl)amino)-1H-pyrazol-1-yl)-2-methylpropan-2-ol] | 8.79 |
| CN1CCC(c2cc3nc(Nc4cnn(C(C)(C)CO)c4Cl)ncc3cc2Cl)CC1 [Ex-8.11, 2-(5-chloro-4-{[6-chloro-7-(1-methylpiperidin-4-yl)quinazolin-2-yl]amino}-1H-pyrazol-1-yl)-2-methylpropan-1-ol] | 8.91 |
| CC(n1ncc(Nc2ncc3cc(Cl)c([C@H]4CCN(C)C[C@@H]4F)cc3n2)c1Cl)C(C)(C)O (single isomer, unassigned) [Ex-4.66, (R)(3S,4S) or (R)(3R,4R) or (S)(3S,4S) or (S)(3R,4R) 3-(5-chloro-4-{[6-chloro-7-(3-fluoro-1-methylpiperidin-4-yl)quinazolin-2-yl]amino}-1H-pyrazol-1-yl)-2-methylbutan-2-ol] | 8.70 |
| CC(n1ncc(Nc2ncc3cc(Cl)c([C@@H]4CCN(C)C[C@H]4F)cc3n2)c1Cl)C(C)(C)O (single isomer, unassigned) [Ex-4.61, (R)(3S,4S) or (R)(3R,4R) or (S)(3S,4S) or (S)(3R,4R) 3-(5-chloro-4-{[6-chloro-7-(3-fluoro-1-methylpiperidin-4-yl)quinazolin-2-yl]amino}-1H-pyrazol-1-yl)-2-methylbutan-2-ol] | 8.80 |
| CC1(n2ncc(Nc3ncc4cc(Cl)c(C5CCN(C6CS(=O)(=O)C6)CC5)cc4n3)c2Cl)CC1 [Ex-8.12, 3-(4-(6-chloro-2-((5-chloro-1-(1-methylcyclopropyl)-1H-pyrazol-4-yl)amino)quinazolin-7-yl)piperidin-1-yl)thietane 1,1-dioxide] | 8.92 |
| Cc1c(Nc2ncc3cc(Cl)c(C4CCN(C5COC5)CC4)cc3n2)cnn1C(C)(C)C#N [Ex-2.19, 2-[4-({6-chloro-7-[1-(oxetan-3-yl)piperidin-4-yl]quinazolin-2-yl}amino)-5-methyl-1H-pyrazol-1-yl]-2-methylpropanenitrile] | >9.20 |
| C[C@@]1(N2CCC(c3cc4nc(Nc5cnn(C6CC6)c5C(F)F)ncc4cc3Cl)CC2)COC[C@@H]1O (single isomer, unassigned) [Ex-2.91, (3S,4S) or (3R,4R) 4-[4-(6-chloro-2-{[1-cyclopropyl-5-(difluoromethyl)-1H-pyrazol-4-yl]amino}quinazolin-7-yl)piperidin-1-yl]-4-methyloxolan-3-ol] | >9.20 |

same assay, conditions: G2019S LRRK2, 134 μM ATP (Km ATP), mean values; read-out: LRRK2 pIC50 (converted)

| SMILES | IC50 [nM] |
| --- | --- |
| CC1(N2CCC(n3cc(Nc4ncc5cc(Cl)c(C6CC67CC7)cc5n4)cn3)CC2)COC1 (single isomer, unassigned) [Ex-2.5, (S) or (R) 6-chloro-N-{1-[1-(3-methyloxetan-3-yl)piperidin-4-yl]-1H-pyrazol-4-yl}-7-(spiro[2.2]pentan-1-yl)quinazolin-2-amine] | 2.19 |
| Cc1c(Nc2ncc3cc(Cl)c(C4CCN(C5COC(C)(C)C5)CC4)cc3n2)cnn1C1CC1 (single isomer, unassigned) [Ex-4.173, (R) or (S) 6-chloro-N-(1-cyclopropyl-5-methyl-1H-pyrazol-4-yl)-7-[1-(5,5-dimethyloxolan-3-yl)piperidin-4-yl]quinazolin-2-amine] | 3.72 |
| Cc1c(Nc2ncc3cc(Cl)c(C4CCN(CC(C)(O)c5ccccc5)CC4)cc3n2)cnn1C1CC1 (single isomer, unassigned) [Ex-4.223, (S) or (R) 1-(4-{6-chloro-2-[(1-cyclopropyl-5-methyl-1H-pyrazol-4-yl)amino]quinazolin-7-yl}piperidin-1-yl)-2-phenylpropan-2-ol] | 2.45 |
| Clc1cc2cnc(Nc3cnn(C4CC4)c3Cl)nc2cc1C1CCN(C2COC2)C1 (single isomer, unassigned) [Ex-4.32, (S) or (R) 6-chloro-N-(5-chloro-1-cyclopropyl-1H-pyrazol-4-yl)-7-[1-(oxetan-3-yl)pyrrolidin-3-yl]quinazolin-2-amine] | 16.6 |
